The source of these data is US10493042B2, “Method for preventing or treating diabetes mellitus, and method for screening for diabetes mellitus therapeutic agent” (UNIVERSITY-INDUSTRY COOPERATION GROUP OF KYUNG HEE …, priority 2013, dated 2019).

Data set [1] concerns NCI-H716 cell. Put plainly: GLP-1 secretion in human enteroendocrine cell (ELISA). It is filed as cell-based. The following applies: 10, 20, 50, 100, 200, 500, 1000 and 2000 μM, 1 hour, FIG. 1A. The procedure: A NCI-H716 cell, i.e., a human enteroendocrine cell, was obtained from Korean Cell Line Bank. The obtained cell was culture in RPMI 1640 medium until the number of obtained cells increased in a proper amount. Then. the cells were moved to a matrigel-coated plate, and then cultured in DMEM medium for 48 hours, for endocrine differentiation.
Geraniol and nerol were purchased from Signa-Aldrich, USA.
Human enteroendocrine cells were each treated with geraniol at a concentration of 10, 20, 50, 100, 200, 500, 1000, and 2000 μM, respectively, and then cells were cultured for 1 hour. A human enteroendocrine cell was treated with nerol, which is an isomer of geraniol, as a comparison group, i.e., a negative control group, under the same condition as in the treating with geraniol.
GLP-1 secretion from the cell treated with geraniol and the cell treated with nerol were identified using enzyme-linked immunosorbent assay (ELISA). ELISA was carried out using a GLP-1 ELISA kit, available from Millipore, based on the user manual. The amount of GLP-1 secretion was measured using a fluoroskan ascent microplate reader (Thermo Electron Corp., Finland).

The target of data set [2] is T1, olfactory receptor OR1A1 (Homo sapiens, UniProt Q9P1Q5).
T1 construct: endogenous in cells; host or cells: human enteroendocrine cell (NCI-H716 named)
T1 sequence (Q9P1Q5 1-309): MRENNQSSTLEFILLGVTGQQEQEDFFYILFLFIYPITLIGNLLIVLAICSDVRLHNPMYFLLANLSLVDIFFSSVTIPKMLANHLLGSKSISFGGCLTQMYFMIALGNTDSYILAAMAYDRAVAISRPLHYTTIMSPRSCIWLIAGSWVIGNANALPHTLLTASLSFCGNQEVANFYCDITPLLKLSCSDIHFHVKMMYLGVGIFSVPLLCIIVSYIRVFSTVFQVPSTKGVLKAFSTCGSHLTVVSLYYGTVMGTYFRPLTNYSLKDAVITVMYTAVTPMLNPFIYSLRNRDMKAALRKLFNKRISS
Put plainly: GLP-1 secretion by geraniol in enteroendocrine cell with OR1A1 knocked-down by siRNA. It is filed as cell-based. The following applies: 100 μM, 1 hour, OR1A1 knocked-down vs normal cell, FIG. 1B. As for the experimental part:
(§1) In a human enteroendocrine cell, in which an olfactory receptor is knocked-down by small-interference RNA (siRNA), an olfactory receptor signal transduction mechanism was identified.
(§2) Human enteroendocrine cells in which olfactory receptors OR1A1 and OR1G1 were knocked-down by siRNAs, respectively, were cultured. SiRNAs for knocking-down OR1A1 (SEQ ID NO. 1 and 2, siRNA No. 1108058) and OR1G1 (SEQ ID NO. 3 and 4, siRNA No. 1108121) are available from Bioneer Co. (South Korea). Lipofectamine 2000 (available from Life technology, USA) was used to carry out intracellular transfection, based on the user manual.
(§3) The human enteroendocrine cells in which olfactory receptors were knocked-down and a normal human enteroendocrine cell were each treated with geraniol at a concentration of 100 μM. Then, the cells were cultured for 1 hour at 37° C. at a concentration of 5% CO2. Thereafter, GLP-1 secretion was identified using ELISA.

Data set [3] has as its target T2, olfactory receptor OR1G1 (Homo sapiens, UniProt P47890).
T2 construct: endogenous in cells; host or cells: human enteroendocrine cell (NCI-H716 named)
T2 sequence (P47890 1-313): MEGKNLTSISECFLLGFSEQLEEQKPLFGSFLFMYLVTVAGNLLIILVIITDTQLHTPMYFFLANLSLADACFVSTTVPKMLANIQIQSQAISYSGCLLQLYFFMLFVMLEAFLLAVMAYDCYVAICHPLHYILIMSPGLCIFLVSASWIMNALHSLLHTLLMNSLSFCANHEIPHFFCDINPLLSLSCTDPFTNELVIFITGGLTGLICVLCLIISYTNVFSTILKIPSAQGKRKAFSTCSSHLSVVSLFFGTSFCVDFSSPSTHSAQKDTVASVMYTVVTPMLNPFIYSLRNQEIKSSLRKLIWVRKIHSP
Put plainly: GLP-1 secretion by geraniol in enteroendocrine cell with OR1G1 knocked-down by siRNA. Format: cell-based. The settings on record: 100 μM, 1 hour, OR1G1 knocked-down vs normal cell, FIG. 1C. As for the experimental part:
as §1, §2, §3

The subject of data set [4] is human enteroendocrine cell. In words: Change of calcium concentration in human enteroendocrine cell. Format: cell-based. The following applies: 100 μM, treated after 1 minute elapsed from the start of the experiment, FIG. 2. The source says: FIG. 2 is a graph showing the change of calcium concentration in a human enteroendocrine cell after geraniol treatment.
The subject of data set [5] is human enteroendocrine cell. Put plainly: Change amount of cAMP in human enteroendocrine cell (cAMP ELISA). It is filed as cell-based. The settings on record: 100 μM geraniol, FIG. 3. As for the experimental part: In a human enteroendocrine cell, the result of geraniol treatment (100 μM) and forskolin treatment (10 μM), which is a cAMP activator, were compared with each other.

Data set [6] concerns db/db mouse, type II diabetes mellitus model. Put plainly: Oral glucose tolerance test after gavage. It is filed as in vivo. The procedure: Oral glucose tolerance test was performed on a db/db mouse (leptin receptor knocked-out mice) (35 g to 39 g), which is a type II diabetes mellitus model. A male 6 week-old db/db mouse was purchased from Daehan Biolink Co., Ltd (DBL, South Korea). A fasting blood sugar level of a db/db mouse of 18 hour-gastric emptying fasted state was measured. Then, the experimental group and the control group were each oral administered with geraniol and metformin, and saline via gavage. Geraniol was administered at 150 or 500 mg/weight Kg, and metformin was administered at 300 mg/weight Kg. Then, each group was administered with glucose of 5 g/weight Kg. Oral glucose tolerance test (OGTT) was performed after 10 minutes, 20 minutes, 40 minutes, 90 minutes, and 120 minutes elapsed.

Data set [7] has the same test system. Put plainly: Plasma GLP-1 and insulin after gavage and glucose (multiplex assay). The following applies: oral administration, glucose 2 g/weight Kg, compared with PBS group. It is filed as in vivo. The procedure:
By using the same method in Example 2 (1), db/db mice of fasted state were each gavaged with geraniol, metformin, or saline. Then, each group were administered with glucose of 2 g/weight Kg. after 10 minutes, 20 minutes, 30 minutes, and 40 minutes elapsed, the amount of GLP-1 and insulin in plasma were measured by using multiplex assay (available from Bio-Rad, USA), based on the user manual, and Bio-Plex MAGPIX multiplex reader (available from Bio-Rad, USA).

For data set [8] the test system is unchanged. Put plainly: Oral glucose tolerance test with geraniol smelling (olfactory stimulation). Format: in vivo. The procedure: A male 6 week-old db/db mouse was purchased from Daehan Biolink Co., Ltd (DBL, South Korea). A fasting blood sugar level of a db/db mouse of 18 hour-gastric emptying fasted state was measured. Then, the experimental group was stimulated (smelling) with geraniol through olfaction. The control group was oral administered with saline and metformin of 300 mg/weight Kg via gavage. Then, each of the experimental group and the control group were administered with glucose of 2 g/weight Kg. After 10 minutes, 20 minutes, 40 minutes, 90 minutes, and 120 minutes elapsed, the amount of GLP-1 in plasma was verified by using multiplex assay (available from Bio-Rad, USA).

Data set [9] has as its system NCI-H716 cell. Put plainly: Cell viability MTT assay. Format: cell-based, human. The settings on record: 10 μM to 1000 μM, 1 hour, compared with PBS, FIG. 8. The procedure: In order to verify cytotoxicity of geraniol on a human enteroendocrine cell, MTT assay was carried out as follows. In detail, cell viability assay was carried out using 3-(4,5-dimethylthiazol-2-yl)-2,5-diphenyltetrazolium) bromide (MTT) (available from Invitrogen, Carlsbad, Calif., USA). An endocrine cell, a NCI-H716 cell, was treated with geraniol of different levels of concentration and 6 mM MTT for 1 hour. Dimethyl sulfoxide (DMSO) was added to the cells, and absorbance thereof was measured using Bio-Rad model 680 microplated reader (Bio-Rad, Hercules, Calif., USA) at 540 nm.

As for `CC(C)=CCC/C(C)=C/CO` [geraniol], the “GLP-1 secretion promoting effect” value in data set [1] is “dose-dependently promotes GLP-1 secretion”. Moreover, the “GLP-1 secretion via stimulation of OR1A1” value in data set [2] is reported as “stimulates OR1A1, an olfactory receptor, promoting GLP-1 secretion”. Further, the “GLP-1 secretion via stimulation of OR1G1” value in data set [3] was “stimulates OR1G1, an olfactory receptor, promoting GLP-1 secretion”. Besides, the “time at which calcium concentration in the cell was the highest” value in data set [4] was found to be 4 min. Besides, in data set [5], the “time after treatment at which concentration of cAMP in the cell was the highest” value was determined as 30 min. Besides, the “hypoglycemic effect at oral glucose tolerance test” value in [6] (gavage 150 or 500 mg/weight Kg, glucose 5 g/weight Kg, compared with saline group, FIG. 5A-5C) is recorded as “exhibited hypoglycemic effect”. For the same molecule, the “hypoglycemic effect compared with metformin” value in [6] (geraniol gavage 150 or 500 mg/weight Kg vs metformin 300 mg/weight Kg) was “comparable to metformin”. Further, the “plasma GLP-1” value in data set [7] (FIG. 6A, 6C) was “secretion inducing of GLP-1”. For the same molecule, in [7] (FIG. 6B, 6D), the plasma insulin entry was “additional insulin”. Besides, in data set [8] (geraniol smelling (olfactory stimulation), FIG. 9), the blood sugar level result is on record as “lowered the blood sugar level”. Further, in data set [8] (geraniol smelling, 10 minutes after glucose 2 g/weight Kg, vs metformin 300 mg/weight Kg oral, FIG. 10), the “amount of GLP-1 in plasma” value was “increased more than the case of metformin administration”. Besides, the “cytotoxicity (cell viability, MTT)” value in data set [9] is listed as “found not to have cytotoxicity”.
As to `CC(C)=CCC/C(C)=C\CO` [nerol, reference compound], the “GLP-1 secretion promoting effect” value in data set [1] was “had no GLP-1 secretion promotion effect”.
